Experiment [1] deals with CDK4/Cyclin D1 (Homo sapiens (Human), UniProt P11802). Kind of experiment: CDK4/Cyclin D1 mobility shift assay. Format: biochemical. The note with it: activated CDK4/Cyclin D1, 3.5 mM ATP, Morrison fit; read-out: CDK4D1 Ki.
In experiment [2] the target is CDK6/Cyclin D3 (Homo sapiens (Human), UniProt Q00534). Kind of experiment: CDK6/Cyclin D3 mobility shift assay. Format: biochemical. Conditions: activated CDK6/Cyclin D3, 3.5 mM ATP, Morrison fit; read-out: CDK6_D3 Ki.
For experiment [3], the target named is CDK4 (Homo sapiens (Human), UniProt P11802). Kind of experiment: Phospho-Serine 795 Rb ELISA assay in JEKO-1 cells. The note with it: overnight treatment, phospho-Rb S795, read-out: CDK4 pRB S795 ELISA JEKO-1 cells IC50. Format: cell-based. Background: ELISA stands for enzyme-linked immunosorbent assay.
Experiment [4] addresses CDK6 (Homo sapiens (Human), UniProt Q00534). Kind of experiment: Phospho-Serine 795 Rb ELISA assay in MV4-11 cells. Format: cell-based. The note with it: overnight treatment, phospho-Rb S795, read-out: CDK6 pRB S795 ELISA MV4-11 cells IC50.

Counter-ions that a name gives are not always drawn.

Chain of CDK6 (Q00534 whole entry): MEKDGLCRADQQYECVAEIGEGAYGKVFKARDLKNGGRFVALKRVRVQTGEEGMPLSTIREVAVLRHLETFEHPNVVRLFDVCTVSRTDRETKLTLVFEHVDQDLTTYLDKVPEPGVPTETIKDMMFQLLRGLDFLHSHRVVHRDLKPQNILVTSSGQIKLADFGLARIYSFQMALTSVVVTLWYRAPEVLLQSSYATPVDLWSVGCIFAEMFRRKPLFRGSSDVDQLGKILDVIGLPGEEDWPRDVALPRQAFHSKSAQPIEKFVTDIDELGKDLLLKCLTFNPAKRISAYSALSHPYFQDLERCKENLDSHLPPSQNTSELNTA
Chain of CDK6 (P30281 whole entry partner): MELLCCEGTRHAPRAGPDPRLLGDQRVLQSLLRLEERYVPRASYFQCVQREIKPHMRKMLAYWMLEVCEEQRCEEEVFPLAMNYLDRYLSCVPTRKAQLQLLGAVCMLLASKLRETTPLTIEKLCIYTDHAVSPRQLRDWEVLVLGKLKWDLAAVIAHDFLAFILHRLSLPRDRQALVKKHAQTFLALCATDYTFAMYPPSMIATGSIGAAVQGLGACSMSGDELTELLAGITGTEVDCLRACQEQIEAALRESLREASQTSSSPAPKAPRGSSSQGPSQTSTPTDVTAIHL
Chain of CDK6/Cyclin D3 (Q00534 whole entry): as the sequence (Q00534 whole entry) above
Chain of CDK6/Cyclin D3 (P30281 whole entry partner): as the sequence (P30281 whole entry partner) above
Chain of CDK4 (P11802 2-303): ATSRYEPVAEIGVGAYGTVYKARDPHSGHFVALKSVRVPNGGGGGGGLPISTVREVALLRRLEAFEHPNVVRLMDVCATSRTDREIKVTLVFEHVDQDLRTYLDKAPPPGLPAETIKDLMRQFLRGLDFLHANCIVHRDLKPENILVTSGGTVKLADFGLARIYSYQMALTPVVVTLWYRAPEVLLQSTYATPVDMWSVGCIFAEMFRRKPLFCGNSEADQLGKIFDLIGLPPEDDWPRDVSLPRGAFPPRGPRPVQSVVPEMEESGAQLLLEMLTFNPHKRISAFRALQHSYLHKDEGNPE
Chain of CDK4 (P24385 whole entry partner): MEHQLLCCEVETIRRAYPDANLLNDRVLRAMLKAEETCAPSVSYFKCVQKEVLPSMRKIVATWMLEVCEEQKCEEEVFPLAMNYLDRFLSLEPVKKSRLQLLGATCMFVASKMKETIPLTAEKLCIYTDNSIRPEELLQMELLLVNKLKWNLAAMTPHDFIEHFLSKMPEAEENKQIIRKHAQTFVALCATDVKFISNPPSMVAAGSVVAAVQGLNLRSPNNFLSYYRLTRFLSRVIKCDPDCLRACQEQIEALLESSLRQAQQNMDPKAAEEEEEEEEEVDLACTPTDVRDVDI
Chain of CDK4/Cyclin D1 (P11802 whole entry): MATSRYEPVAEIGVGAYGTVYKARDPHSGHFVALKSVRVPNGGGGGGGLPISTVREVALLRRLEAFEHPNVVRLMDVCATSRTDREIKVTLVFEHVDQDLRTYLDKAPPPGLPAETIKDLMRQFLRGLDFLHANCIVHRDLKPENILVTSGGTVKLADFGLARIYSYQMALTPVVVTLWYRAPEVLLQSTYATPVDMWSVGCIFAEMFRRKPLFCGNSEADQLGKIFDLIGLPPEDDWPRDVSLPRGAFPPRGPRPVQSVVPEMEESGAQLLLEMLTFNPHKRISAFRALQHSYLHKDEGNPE
Chain of CDK4/Cyclin D1 (P24385 whole entry partner): as the sequence (P24385 whole entry partner) above

As to `CC(C)n1c(CC(C)(C)N)nc2c(F)cc(-c3nc(N[C@@H]4CCOC[C@H]4O)ncc3Cl)cc21` [Example A45, 3-({4-[2-(2-amino-2-methylpropyl)-4-fluoro-1-(propan-2-yl)-1H-benzimidazol-6-yl]-5-chloropyrimidin-2-yl}amino)-1,5-anhydro-2,3-dideoxy-D-threo-pentitol], the figures for the inhibition constant Ki in experiment [1] and in experiment [2] were 1 nM and 52 nM, respectively. Further, the results for the IC50 in experiment [3] and in experiment [4] were 65.8 nM and 468 nM, respectively.
Take `CC(C)n1c(C(C)(C)O)nc2c(F)cc(-c3nc(N[C@@H]4CCOC[C@H]4O)ncc3Cl)cc21` [Example A94, 1,5-anhydro-3-({5-chloro-4-[4-fluoro-2-(2-hydroxypropan-2-yl)-1-(propan-2-yl)-1H-benzimidazol-6-yl]pyrimidin-2-yl}amino)-2,3-dideoxy-D-threo-pentitol]: the Ki amounted to 0.6 nM in experiment [1] and 13.9 nM in experiment [2]. In addition, the IC50 was determined as 38.5 nM in experiment [3] and 145 nM in experiment [4].
Consider `CC(=O)N1CC[C@@H](Nc2ncc(F)c(-c3cc(F)c4nc(C)n(C(C)C)c4c3)n2)[C@H](O)C1` [Example F16, 1-[(3R,4R)-4-({5-fluoro-4-[4-fluoro-2-methyl-1-(propan-2-yl)-1H-benzimidazol-6-yl]pyrimidin-2-yl}amino)-3-hydroxypiperidin-1-yl]ethan-1-one], for which the Ki in experiment [1] turned out to be 1.4 nM; in experiment [2], 26 nM. Also, the concentration for half-maximal inhibition (IC50) was found to be 675 nM in experiment [3] and 363 nM in experiment [4].
For `Cc1nc2ccc(-c3cc(N[C@@H]4CCN(S(C)(=O)=O)C[C@H]4O)ncc3Cl)nc2n1C(C)C` [Example D04, (3R,4R)-4-({5-chloro-4-[2-methyl-3-(propan-2-yl)-3H-imidazo[4,5-b]pyridin-5-yl]pyridin-2-yl}amino)-1-(methanesulfonyl)piperidin-3-ol], in that order: 0.6 nM, 12.5 nM, 68.2 nM and 172 nM.
In the same order, the values of `CC(C)n1c(CN2CC(C)(O)C2)nc2c(F)cc(-c3nc(N[C@@H]4CCOC[C@H]4O)ncc3Cl)cc21` [Example H01, 1,5-anhydro-3-[(5-chloro-4-{4-fluoro-2-[(3-hydroxy-3-methylazetidin-1-yl)methyl]-1-(propan-2-yl)-1H-benzimidazol-6-yl}pyrimidin-2-yl)amino]-2,3-dideoxy-D-threo-pentitol] are 2.4 nM, 127 nM, 137 nM and 858 nM.
For `CC(C)n1c(CN2CC(F)C2)nc2c(F)cc(-c3nc(N[C@@H]4CCOC[C@H]4O)ncc3Cl)cc21` [Example H06, 1,5-anhydro-3-[(5-chloro-4-{4-fluoro-2-[(3-fluoroazetidin-1-yl)methyl]-1-(propan-2-yl)-1H-benzimidazol-6-yl}pyrimidin-2-yl)amino]-2,3-dideoxy-D-threo-pentitol], in that order: 1.1 nM, 35.6 nM, 79.6 nM and 343 nM.
On to `C[C@@H](O)c1nc2c(F)cc(-c3nc(N[C@@H]4CCN(S(C)(=O)=O)C[C@H]4O)ncc3Cl)cc2n1C(C)(C)C` [Example A62, (3R,4R)-4-[(4-{1-tert-butyl-4-fluoro-2-[(1R)-1-hydroxyethyl]-1H-benzimidazol-6-yl}-5-chloropyrimidin-2-yl)amino]-1-(methanesulfonyl)piperidin-3-ol], for which the Ki in experiment [1] was found to be 0.5 nM; in experiment [2], 8 nM. For the same compound, the values for the IC50 in experiment [3] and in experiment [4] were 27.5 nM and 66.6 nM, respectively.
Regarding `Cc1nc2c(F)cc(-c3nc(N[C@@H]4CCN(S(C)(=O)=O)C[C@H]4O)ncc3Cl)cc2n1CC(C)N` (stereo partly drawn) [Example A40, (3R,4R)-4-({4-[1-(2-aminopropyl)-4-fluoro-2-methyl-1H-benzimidazol-6-yl]-5-chloropyrimidin-2-yl}amino)-1-(methanesulfonyl)piperidin-3-ol], the Ki in experiment [1] came to 0.3 nM; in experiment [2] it was 3.5 nM. The 50% inhibitory concentration (IC50) in experiment [3] is 85.5 nM; in experiment [4], 346 nM.
In the same order, the values of `CC(C)n1c(CO)nc2c(F)cc(-c3nc(N[C@@H]4CCN(S(C)(=O)=O)C[C@H]4O)ncc3Cl)cc21` [Example A87, (3R,4R)-4-({5-chloro-4-[4-fluoro-2-(hydroxymethyl)-1-(propan-2-yl)-1H-benzimidazol-6-yl]pyrimidin-2-yl}amino)-1-(methanesulfonyl)piperidin-3-ol] are 0.2 nM, 2.8 nM, 40.1 nM and 97.7 nM.
For `CC(C)n1c(CC2(N)CCCC2)nc2c(F)cc(-c3nc(N[C@@H]4CCOC[C@H]4O)ncc3Cl)cc21` [Example A59, 3-[(4-{2-[(1-aminocyclopentyl)methyl]-4-fluoro-1-(propan-2-yl)-1H-benzimidazol-6-yl}-5-chloropyrimidin-2-yl)amino]-1,5-anhydro-2,3-dideoxy-D-threo-pentitol], in that order: 0.6 nM, 56.7 nM, 47.7 nM and 521 nM.
For `Cc1nc2c(F)cc(-c3nc(N[C@@H]4CCN(C(=O)CO)C[C@H]4O)ncc3F)cc2n1C(C)C` [Example F17, 1-[(3R,4R)-4-({5-fluoro-4-[4-fluoro-2-methyl-1-(propan-2-yl)-1H-benzimidazol-6-yl]pyrimidin-2-yl}amino)-3-hydroxypiperidin-1-yl]-2-hydroxyethan-1-one], in that order: 0.5 nM, 8.3 nM, 83.2 nM and 127 nM.
`CC(C)n1c(CNC2COC2)nc2c(F)cc(-c3nc(N[C@@H]4CCOC[C@H]4O)ncc3Cl)cc21` [Example H05, 1,5-anhydro-3-({5-chloro-4-[4-fluoro-2-{[(oxetan-3-yl)amino]methyl}-1-(propan-2-yl)-1H-benzimidazol-6-yl]pyrimidin-2-yl}amino)-2,3-dideoxy-D-threo-pentitol]: the Ki in experiment [1] came to 4.5 nM; in experiment [2], 93.3 nM. Besides, the results for the 50% inhibitory concentration (IC50) in experiment [3] and in experiment [4] were 249 nM and 1470 nM, respectively.
For `CC(C)n1cnc2c(F)cc(-c3nc(N[C@@H]4CCN(C(=O)C5(F)CNC5)C[C@H]4O)ncc3Cl)cc21` [Example F27, [(3R,4R)-4-({5-chloro-4-[4-fluoro-1-(propan-2-yl)-1H-benzimidazol-6-yl]pyrimidin-2-yl}amino)-3-hydroxypiperidin-1-yl](3-fluoroazetidin-3-yl)methanone], in that order: 0.5 nM, 5.1 nM, 60.8 nM and 188 nM.
In the same order, the values of `CC(C)(C)n1cnc2c(F)cc(-c3nc(N[C@@H]4CCN(C(=O)C5(N)CC(F)(F)C5)C[C@H]4O)ncc3Cl)cc21` [Example F30, (1-amino-3,3-difluorocyclobutyl)[(3R,4R)-4-{[4-(1-tert-butyl-4-fluoro-1H-benzimidazol-6-yl)-5-chloropyrimidin-2-yl]amino}-3-hydroxypiperidin-1-yl]methanone] are 0.5 nM, 12.5 nM, 66.1 nM and 377 nM.
In the case of `CC(C)n1c(C(C)(O)C2CC2)nc2c(F)cc(-c3nc(N[C@@H]4CCOC[C@H]4O)ncc3Cl)cc21` (single isomer, unassigned) [Example A23], the results for the Ki in experiment [1] and in experiment [2] were 0.5 nM and 11.6 nM, respectively. The IC50 in experiment [3] came to 26.5 nM; in experiment [4], 84.1 nM.
For `CC(C)(C)n1cnc2c(F)cc(-c3nc(N[C@@H]4CCN(C(=O)C5(F)CNC5)C[C@H]4O)ncc3Cl)cc21` [Example F26, [(3R,4R)-4-{[4-(1-tert-butyl-4-fluoro-1H-benzimidazol-6-yl)-5-chloropyrimidin-2-yl]amino}-3-hydroxypiperidin-1-yl](3-fluoroazetidin-3-yl)methanone], in that order: 0.1 nM, 4.6 nM, 143 nM and 182 nM.
Take `CC(C)n1c([C@H](C)N)nc2c(F)cc(-c3nc(N[C@@H]4CCOC[C@H]4O)ncc3Cl)cc21` [Example A53, 3-[(4-{2-[(1S)-1-aminoethyl]-4-fluoro-1-(propan-2-yl)-1H-benzimidazol-6-yl}-5-chloropyrimidin-2-yl)amino]-1,5-anhydro-2,3-dideoxy-D-threo-pentitol]: the Ki was determined as 0.6 nM in experiment [1] and 16.7 nM in experiment [2]. In addition, the concentration for half-maximal inhibition (IC50) in experiment [3] worked out at 67.3 nM; in experiment [4], 208 nM.
With `CC(C)NCc1nc2c(F)cc(-c3nc(N[C@@H]4CCOC[C@H]4O)ncc3Cl)cc2n1C(C)C` [Example H08, 1,5-anhydro-3-({5-chloro-4-[4-fluoro-1-(propan-2-yl)-2-{[(propan-2-yl)amino]methyl}-1H-benzimidazol-6-yl]pyrimidin-2-yl}amino)-2,3-dideoxy-D-threo-pentitol], the inhibition constant Ki was found to be 1.2 nM in experiment [1] and 44.5 nM in experiment [2]. The IC50 in experiment [3] amounted to 35.6 nM; in experiment [4], 306 nM.
On to `CC(C)(C)n1cnc2c(F)cc(-c3nc(N[C@@H]4CCN(CCO)C[C@H]4O)ncc3Cl)cc21` [Example F05, (3R,4R)-4-{[4-(1-tert-butyl-4-fluoro-1H-benzimidazol-6-yl)-5-chloropyrimidin-2-yl]amino}-1-(2-hydroxyethyl)piperidin-3-ol formic acid salt], for which the Ki in experiment [1] is 2.1 nM; in experiment [2] it was 25.8 nM. Further, the half-maximal inhibitory concentration (IC50) in experiment [3] was 248 nM; in experiment [4], 478 nM.

The Ki is a measure of affinity in units of concentration, obtained from inhibition or displacement. A word on the IC50: it is the concentration needed to halve the response being measured.

(Values after patent US10766884B2 (Pfizer Inc., priority 2018, dated 2020).)
